Assay results as given in patent publication US11234982B2, “Methods for treating ocular surface pain” (NOVARTIS AG, priority 2019, dated 2022).
“Also recorded” adds a separate entry of the source.

Tested on: patients undergoing photorefractive keratectomy (PRK) surgery
Assay: PRK study: adverse events
Assay type: in vivo, human
Protocol: The study was a proof of concept, double-masked, randomized, vehicle-controlled study of compound I administered as eye drops in addition to standard of care treatment in patients after PRK surgery. PRK surgery was performed as an outpatient procedure under topical anesthesia with removal of the corneal epithelium to expose the stroma for the laser ablation. Compound I dosing was as single eye drop of 2.5% (25 mg/ml, 0.925 mg/drop), administered four times daily (every six hours) in one eye from immediate post-op (time 0) to last dose at 72 hours.
Safety assessments consisted of collecting all AEs, SAEs, with their severity and relationship to study drug. Only signs and symptoms greater than the listed ranges of either severity or duration were reported as AEs.
Adverse events and serious adverse events included an assessment of both systemic and ocular assessments. Systemic safety assessments included regular assessments of height and weight, vital signs, reporting medication errors including misuse/abuse, pregnancy reporting and early phase safety monitoring. The misuse/abuse, pregnancy reporting and early phase safety monitoring were not assessed for the study. Ocular safety assessments included the following: • Best-corrected visual acuity (BCVA) and uncorrected visual acuity (UCVA): Was measured at each visit using an ETDRS visual acuity chart at 4 meters (13 feet) or 1 meter (for patients that cannot read the 4 meter chart). The BCVA scoring was done based on the number of correctly read letters plus 30. If visual acuity was so poor that the patient could not read any of the largest letters at 1 meter, count fingers and hand movement vision and light perception was tested. • Intraocular Pressure (TOP): IOP measurements were conducted with applanation tonometry or Tonopen. • Dilated fundus exam: The dilated fundus examination included ophthalmoscopic assessments of the vitreous, retina/macula/choroid, and optic nerve. Evaluations for retinal tear/detachment, retinal hemorrhage, vitreous hemorrhage density, vitreous haze grading and abnormal findings were done and scored according to grading criteria. • Ocular hyperemia: Conjunctival redness of the bulbar conjunctiva in each eye at the slit lamp according to the McMonnies redness scale was graded. […] By adjusting the calibrated slit beam width and height, the maximum horizontal (wound width) and vertical dimensions (wound height) of the surgical epithelial wound was estimated. The evaluation was performed until wound closure and report of wound size as 0 horizontal and 0 vertical dimensions. • Slit-lamp biomicroscopy: Ocular signs (eyelids/conjunctiva, cornea, lens, and iris/anterior chamber) was assessed in both eyes by slit lamp biomicroscopy according to the grading criteria. • Blink rate: A blink was defined as a bilateral paroxysmal closure of the eyelids (duration<1 second) in the absence of a provoking external stimulus. Each blink assessment lasted for 2 min (or as close to 2 minutes as possible with minimum time 1 minute) and the obtained blink rate was averaged to calculate blink rate in blinks/min. • Tear production (Schirmer's test without anesthesia): The test was performed without anesthetic in both eyes simultaneously. Tear secretion was measured in millimeters of the length of strip wetted by tears. […] The strip was wetted with 1 drop of sterile saline and flicked to remove excess saline. The patient blinked several times to ensure dispersion of the dye throughout the tear film prior to grading on a scale of 0-3 (0=Normal, No staining; 1=Mild, Superficial stippling micropunctate staining; 2=Moderate, Macropunctate staining with some coalescent areas and 3=Severe, Numerous coalescent macropunctate areas and/or patches) for each of 5 zones (central plus 4 quadrants).

CC(C)c1nc2cc(O)ccc2c(=O)n1-c1ccc(C#N)cc1 [Compound I, 4-(7-hydroxy-2-isopropyl-4-oxo-4H-quinazolin-3-yl)-benzonitrile]
Non-ocular AE Arthralgia: Procedure related (Compound I 2.5%): no | Non-ocular AE Arthralgia: Severity (Compound I 2.5%): mild | Non-ocular AE Headache: Procedure related (Compound I 2.5%): no | Non-ocular AE Headache: Severity (Compound I 2.5%): mild | Non-ocular AE Nasopharyngitis: Procedure related (Compound I 2.5%): no | Non-ocular AE Nasopharyngitis: Severity (Compound I 2.5%): mild, mild | Non-ocular AE Oropharyngeal Pain: Procedure related (Compound I 2.5%): no | Non-ocular AE Oropharyngeal Pain: Severity (Compound I 2.5%): mild | Non-ocular AE Pyrexia: Procedure related (Compound I 2.5%): no | Non-ocular AE Pyrexia: Severity (Compound I 2.5%): moderate | Non-ocular AE Sinus Congestion: Procedure related (Compound I 2.5%): no | Non-ocular AE Sinus Congestion: Severity (Compound I 2.5%): moderate | Non-ocular AE Sinusitis: Procedure related (Compound I 2.5%): no | Non-ocular AE Sinusitis: Severity (Compound I 2.5%): moderate | Non-ocular AE Vomiting: Procedure related (Compound I 2.5%): no | Non-ocular AE Vomiting: Severity (Compound I 2.5%): moderate | Ocular AE Corneal Opacity: Procedure related (Compound I 2.5%): yes | Ocular AE Corneal Opacity: Severity (Compound I 2.5%): mild | Ocular AE Posterior Vitreous Detachment: Procedure related (Compound I 2.5%): no | Ocular AE Posterior Vitreous Detachment: Severity (Compound I 2.5%): mild | Ocular AE Punctate Keratitis: Procedure related (Compound I 2.5%): yes | Ocular AE Punctate Keratitis: Severity (Compound I 2.5%): mild | Non-ocular AE Arthralgia: patients (Compound I 2.5%, N = 40): 1 (2.5) n (%) | Non-ocular AE Headache: patients (Compound I 2.5%, N = 40): 1 (2.5) n (%) | Non-ocular AE Nasopharyngitis: patients (Compound I 2.5%, N = 40): 2 (5.0) n (%) | Non-ocular AE Oropharyngeal Pain: patients (Compound I 2.5%, N = 40): 1 (2.5) n (%) | Non-ocular AE Pyrexia: patients (Compound I 2.5%, N = 40): 1 (2.5) n (%) | Non-ocular AE Sinus Congestion: patients (Compound I 2.5%, N = 40): 1 (2.5) n (%) | Non-ocular AE Sinusitis: patients (Compound I 2.5%, N = 40): 1 (2.5) n (%) | Non-ocular AE Tinnitus: patients (Compound I 2.5%, N = 40): 0 n (%) | Non-ocular AE Vomiting: patients (Compound I 2.5%, N = 40): 1 (2.5) n (%) | Number of AEs (Compound I 2.5%, N = 40): 12 | Number of drug-related AEs (Compound I 2.5%, N = 40): 0 | Number of mild severity AEs (Compound I 2.5%, N = 40): 8 | Number of moderate severity AEs (Compound I 2.5%, N = 40): 4 | Number of non-ocular AEs (Compound I 2.5%, N = 40): 9 | Number of ocular AEs (Compound I 2.5%, N = 40): 3 | Number of procedure-related AEs (Compound I 2.5%, N = 40): 2 | Number of severe AEs (Compound I 2.5%, N = 40): 0 | Ocular AE Corneal Infiltrate: patients (Compound I 2.5%, N = 40): 0 n (%) | Ocular AE Corneal Opacity: patients (Compound I 2.5%, N = 40): 1 (2.5) n (%) | Ocular AE Posterior Vitreous Detachment: patients (Compound I 2.5%, N = 40): 1 (2.5) n (%) | Ocular AE Punctate Keratitis: patients (Compound I 2.5%, N = 40): 1 (2.5) n (%) | Patients with at least one AE (Compound I 2.5%, N = 40): 8 (20) n (%) | Patients with at least one non-ocular AE (Compound I 2.5%, N = 40): 6 (15) n (%) | Patients with at least one ocular AE (Compound I 2.5%, N = 40): 3 (7.5) n (%) | Differences in safety between compound I and Vehicle (PRK study): no observed clinically meaningful differences in safety | Deaths, SAEs, discontinuations due to AEs (PRK study, 2.5% four times daily for 72 hours): no deaths or SAEs or discontinuation of the drug or discontinuation from the study due to AEs; also recorded: no deaths, or serious or severe AEs, treatment discontinuations or study discontinuations
